Reference: US8580806B2, “Salts of 4-methyl N-[3-(4-methyl-imidazol-1-yl)-5-trifluoromethyl-phenyl]-3-(4-pyridin-3-yl-pyrimidin-2-ylamino)-benzamide” (Novartis AG, priority 2005, dated 2013)
Where a name gives a salt, the structure may show the parent alone. Read-outs that look alike come from different tables or passages of the source.

What was measured:
[1] = Hygroscopicity by TGA after one day at ambient temperature and 93% relative humidity; assay type: physicochemical; details: ambient temperature
Experimental: The hygroscopicity of the salts of the invention was determined by TGA after one day at ambient temperature and 93% relative humidity.

[2] = Decomposition temperature by TGA; assay type: physicochemical; details: for Decomposition temperature: TGA, onset of the first derivative of sample weight loss v. temperature; for decomposes at: as stated in the description of the embodiments
Experimental: The LOD and decomposition temperature of the salts of the invention were determined by TGA, and the melting point was determined by DSC.

[3] = pH 3.0 buffer, ambient temperature, at least 20 hours
Experimental: The solubility of the salts of the invention was determined in pH 6.8, pH 3.0 and pH 1.0 buffers by suspending 1-5 mg of each salt in 10 mL of corresponding aqueous solution. The samples were allowed to equilibrate at ambient temperature for at least 20 hours for pH 6.8 and 3.0 or about 5 hours for pH 1.0. The supernatant was filtered and used for the solubility determination by UV-VIS spectroscopy.

SMILES | % moisture gain [1] [%] | Decomposition temperature [2] [°C] | decomposes at [2] | other results
Cc1cn(-c2cc(NC(=O)c3ccc(C)c(Nc4nccc(-c5cccnc5)n4)c3)cc(C(F)(F)F)c2)cn1.O=S(=O)(O)O [Sulfate (form B), sulfate salt of 4-methyl-N-[3-(4-methyl-imidazol-1-yl)-5-trifluoromethyl-phenyl]-3-(4-pyridin-3-yl-pyrimidin-2-ylamino)-benzamide] | 0.22 | 201 | about 206 °C | Solubility at pH 3.0 [3]: 6.5 μg/mL
Cc1cn(-c2cc(NC(=O)c3ccc(C)c(Nc4nccc(-c5cccnc5)n4)c3)cc(C(F)(F)F)c2)cn1.O=P(O)(O)O.O=P(O)(O)O [diphosphate salt, diphosphate salt of 4-methyl-N-[3-(4-methyl-imidazol-1-yl)-5-trifluoromethyl-phenyl]-3-(4-pyridin-3-yl-pyrimidin-2-ylamino)-benzamide] |  |  | about 210 °C | 
Cc1cn(-c2cc(NC(=O)c3ccc(C)c(Nc4nccc(-c5cccnc5)n4)c3)cc(C(F)(F)F)c2)cn1 [Methane sulfonate, 4-methyl-N-[3-(4-methyl-imidazol-1-yl)-5-trifluoromethyl-phenyl]-3-(4-pyridin-3-yl-pyrimidin-2-ylamino)-benzamide mesylate salt] |  |  |  | % moisture gain ([1]; mesylate salt): 0.22%; Decomposition temperature ([2]; mesylate salt): 260 °C; decomposes at ([2]; listed as methane sulfonate (mesylate) salt, mesylate salt): about 260 °C; Solubility at pH 3.0 ([3]; listed as Methane sulfonate salt, mesylate salt): 5.2 μg/mL
Cc1cn(-c2cc(NC(=O)c3ccc(C)c(Nc4nccc(-c5cccnc5)n4)c3)cc(C(F)(F)F)c2)cn1 [Monophosphate, 4-methyl-N-[3-(4-methyl-imidazol-1-yl)-5-trifluoromethyl-phenyl]-3-(4-pyridin-3-yl-pyrimidin-2-ylamino)-benzamide monophosphate salt] |  |  |  | % moisture gain ([1]; monophosphate salt): 1.33%; Decomposition temperature ([2]; monophosphate salt): 212 °C; decomposes at ([2]; monophosphate salt): about 212 °C
Cc1cn(-c2cc(NC(=O)c3ccc(C)c(Nc4nccc(-c5cccnc5)n4)c3)cc(C(F)(F)F)c2)cn1 [p-Toluene sulfonate, 4-methyl-N-[3-(4-methyl-imidazol-1-yl)-5-trifluoromethyl-phenyl]-3-(4-pyridin-3-yl-pyrimidin-2-ylamino)-benzamide p-toluene sulfonate salt] | 1.02 | 256 | about 256 °C | 
Cc1cn(-c2cc(NC(=O)c3ccc(C)c(Nc4nccc(-c5cccnc5)n4)c3)cc(C(F)(F)F)c2)cn1 [Benzene sulfonate, 4-methyl-N-[3-(4-methyl-imidazol-1-yl)-5-trifluoromethyl-phenyl]-3-(4-pyridin-3-yl-pyrimidin-2-ylamino)-benzamide mono benzyl sulfonate salt] | 0.11 | 260 |  | decomposes at ([2]; listed as benzene sulfonate salt): about 260 °C
CCS(=O)(=O)O.Cc1cn(-c2cc(NC(=O)c3ccc(C)c(Nc4nccc(-c5cccnc5)n4)c3)cc(C(F)(F)F)c2)cn1 [Ethane sulfonate, ethane sulfonate salt of 4-methyl-N-[3-(4-methyl-imidazol-1-yl)-5-trifluoromethyl-phenyl]-3-(4-pyridin-3-yl-pyrimidin-2-ylamino)-benzamide] | 1.11 | 220 | about 220 °C | Solubility at pH 3.0 [3]: 2.8 μg/mL
